Data: paper PMC11220827 (Frontiers in Pharmacology, 2024)
Values joined by “and” are separate entries in the source; they are usually repeats but may differ in a detail not shown here. Equal values may be shown once. Read-outs that look alike come from different tables or passages of the source.

Columns and labels:
HepG2 cells = assay: cells; type: cell-based; settings: for AC50: Homo sapiens, HepG2, 24 h
ERα receptor [1] = molecular target: T1, ERα receptor (Homo sapiens, UniProt P03372)
Method: using the U2-OS based CALUX cytotox bioassay. The cytotoxicity of each test chemical was assessed using the U2-OS based cytotoxicity CALUX bioassay. Concentrations causing >20% reduction of luminescence were considered cytotoxic.
cytotoxicity (relative induction in the cytotoxicity CALUX bioassay > 80%) were used for final
evaluation of analysis results.
induction in the cytotox CALUX bioassay > 80%) were used for final evaluation of analysis results.
All analysis results were expressed in molar (M) final in well.
For determination of the (anti-)ERα, (anti-)AR and (anti-)TRβ CALUX activities, CALUX cells were
seeded in assay medium. Following exposure of the CALUX cells to serial dilutions of the
compounds in triplicate for 24 h, the induction of luciferase production was quantified by measuring
luminescence following addition of the substrate luciferin. For antagonist assays, a fixed
concentration of assay agonist was present in each well, to generate a basal signal. On each plate, a
complete calibration curve for each respective bioassay was also analysed using the relevant reference
compounds. For the analyses in the presence of rat liver S9, 0.03% (v/v) of PB/BNF induced rat liver […]
Relative light units (RLUs) of the CALUX assays were analysed as follows. […]
effect concentrations (LOECs) and PC50 concentrations were determined; LOEC is defined as the […]

[2] = Measured plasma concentrations of daidzein from dietary intake; type: in vivo, human; settings: PoD 10 nM / 3.14 µM
From the text: Daidzein is present in soy-derived foods and is consumed in large amounts in Asian countries.

ERα receptor [3] = molecular target: T1, ERα receptor; remark: listed apart in the source
Monooxygenase = system: Monooxygenase; parameters: method as in ToxCast; settings: ref ToxCast, cited from earlier work; as to Thyroid pathway: Monooxygenase (Not AOP), Call: key: Pos = positive result; Neg = negative result; Inc = uncertain/inconclusive result
TSHR = system: TSHR; parameters: method as in ToxCast; settings: ref ToxCast; cited from earlier work; also: key: Pos = positive result; Neg = negative result; Inc = uncertain/inconclusive result
Estrogen ERα (h) [4] = molecular target: T2, Estrogen ERα (h) (Homo sapiens, UniProt P03372); assay: biochemical; settings: read-out: Estrogen ERα (h) (agonist RL): % inhibition @10 µM
MAO-A = molecular target: T3, MAO-A (Rattus norvegicus, UniProt P21396); assay: Pharmacology profiling: MAO-A (antagonist RL); type: binding
T3 sequence (P21396 1-526): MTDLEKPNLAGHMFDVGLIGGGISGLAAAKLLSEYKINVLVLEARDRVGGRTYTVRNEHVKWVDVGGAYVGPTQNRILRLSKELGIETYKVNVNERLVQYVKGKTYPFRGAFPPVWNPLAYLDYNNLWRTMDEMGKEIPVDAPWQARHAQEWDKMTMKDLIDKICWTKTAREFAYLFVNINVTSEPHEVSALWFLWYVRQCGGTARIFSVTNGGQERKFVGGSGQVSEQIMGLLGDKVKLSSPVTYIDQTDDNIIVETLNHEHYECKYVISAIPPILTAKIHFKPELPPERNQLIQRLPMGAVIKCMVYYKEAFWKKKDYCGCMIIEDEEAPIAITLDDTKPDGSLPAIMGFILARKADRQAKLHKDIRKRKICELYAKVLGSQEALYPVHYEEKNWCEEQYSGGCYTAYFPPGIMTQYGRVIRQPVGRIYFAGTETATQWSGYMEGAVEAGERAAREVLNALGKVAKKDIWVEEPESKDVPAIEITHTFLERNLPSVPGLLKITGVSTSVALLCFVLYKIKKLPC
Method: Chemicals that are flagged for a target are tested in follow-up dose-response assays to establish potency of the interaction.
Pharmacology profiling assays
targets. The list of targets included the original panel of 44 targets (including receptors, ion channels,
transporters and enzymes) recommended by 4 major pharmaceutical companies as significant
reasoned to link to pathological effects. Results showing an inhibition or stimulation higher than 50%
are considered to represent significant effects (i.e. a “hit”).
and 50% are indicative of weak to moderate effects and results showing an inhibition (or stimulation)
around the control level. For several targets, additional concentration effect assays were conducted to
determine the potency (IC50). The concentrations tested (in duplicate) ranged between 30 nM and 100

HepaRG cells = assay: Transcriptomics (TempO-Seq, BMD analysis) in HepaRG cells; type: cell-based
Method: These differed with respect to the number of genes passing all filters in each pathway (3 versus 5 genes). […] Therefore, we captured pathways which fulfilled both criteria.
HepG2 (human hepatoblastoma) , MCF-7 (human breast adenocarcinoma) cells supplied by
Public Health England European Collection of Cell Cultures (ECACC, Salisbury, UK). Differentiated
HepaRG cells (HPR116, Lot HPR116239 -TA08) were from Biopredic International (Rennes, France).
Test chemicals were prepared in DMSO as serial dilutions, resulting in concentrations in media of
biological replicates were treated with the appropriate dose of co mpound for 24 h prior to cell lysis.
Biospyder human whole genome panel version 1 (https://biospyder.com).
Gene normalization and analysis
expression values for each probe were normalized by applying DESEQ2 normalization. A pseudo-
read-count of 1.0 was added to each normalized expression value, and then the values were log2
transformed . Analyses performed included Gene and Pathway, Dose Response and Network
monotonic increasing/decreasing trend were those which confirmed to the criteria : William’s trend
Those genes were then used in categorical (pathway) analysis for the Gene Ontology (GO) terms and
REACTOME pathways. Significant dose responsive pathways were determined according to : Fisher’s

[5] = for BER, Cmax, total CI5%: PoD 10 nM
From the text: For human exposure, the aim is to estimate a safe dose when used in a body lotion or face cream. […] Therefore, metabolism was considered by incorporating a model to characterize the rate of metabolism and then fitted it to the metabolism measured in ex vivo viable skin.
An additional safety factor of 3.3 was applied to account for intra-individual variability.

Estrogen ERα (h) [6] = molecular target: T2, Estrogen ERα (h); settings: pharmacology profiling; LOEC = 10% of maximum reference compound activity
[7] = HepaRG, 24 h, pathway differs per chemical

T2 sequence (P03372 whole entry): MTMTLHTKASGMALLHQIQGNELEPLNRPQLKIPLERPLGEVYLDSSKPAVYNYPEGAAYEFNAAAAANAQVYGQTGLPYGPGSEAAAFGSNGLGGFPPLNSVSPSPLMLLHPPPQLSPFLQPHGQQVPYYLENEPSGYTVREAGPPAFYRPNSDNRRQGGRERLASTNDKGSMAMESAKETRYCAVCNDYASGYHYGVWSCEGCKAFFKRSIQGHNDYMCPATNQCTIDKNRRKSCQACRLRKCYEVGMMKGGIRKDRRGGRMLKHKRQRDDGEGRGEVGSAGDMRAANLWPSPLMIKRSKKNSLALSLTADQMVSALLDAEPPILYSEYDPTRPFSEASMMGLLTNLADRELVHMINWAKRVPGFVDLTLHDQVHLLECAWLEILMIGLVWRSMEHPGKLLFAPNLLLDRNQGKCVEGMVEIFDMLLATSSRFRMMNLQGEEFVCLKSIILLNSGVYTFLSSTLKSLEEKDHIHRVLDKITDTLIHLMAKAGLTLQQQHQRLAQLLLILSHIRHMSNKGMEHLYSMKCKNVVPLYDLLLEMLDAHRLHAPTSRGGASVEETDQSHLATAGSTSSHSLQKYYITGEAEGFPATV
T1 sequence (P03372 whole entry): as above

O=c1c(-c2ccc(O)cc2)coc2cc(O)ccc12 [Daidzein, DAIDZEIN]
Apoptosis & necrosis: cell membrane permeability: Effect (HepG2 cells): decrease
AC50 (HepG2 cells; read-out: Apoptosis & necrosis: caspase 3/7: AC50): > 100 µM
AC50 (HepG2 cells; read-out: Apoptosis & necrosis: cell membrane permeability: AC50): > 100 µM
AC50 (HepG2 cells; read-out: Cellular ATP: AC50): > 100 µM
AC50 (HepG2 cells; read-out: ER stress panel 1: ER integrity: AC50): > 100 µM
AC50 (HepG2 cells; read-out: Inflammation & pH: HIF1α: AC50): > 100 µM
AC50 (HepG2 cells; read-out: Inflammation & pH: intracellular pH: AC50): > 100 µM
AC50 (HepG2 cells; read-out: Mitochondrial mass: AC50): > 100 µM
AC50 (HepG2 cells; read-out: Mitochondrial membrane potential: AC50): 55.3 µM
AC50 (HepG2 cells; read-out: Nuclear size: AC50): > 100 µM
AC50 (HepG2 cells; read-out: Osmotic & heat shock: NFAT: AC50): > 100 µM
AC50 (HepG2 cells; read-out: Osmotic & heat shock: hsp70: AC50): > 25 µM
AC50 (HepG2 cells; read-out: Oxidative stress: HMOX1: AC50): 77.6 µM
AC50 (HepG2 cells; read-out: Oxidative stress: NRF2: AC50): > 100 µM
Apoptosis & necrosis: caspase 3/7: MEC (HepG2 cells; human, 24 h): 36.9 µM
Apoptosis & necrosis: cell membrane permeability: MEC (HepG2 cells; human, 24 h): 51.5 µM
Cell stress LOEC, ↓ in mitochondrial membrane potential (HepG2 cells; human, 24 h): 10.8 µM
Cellular ATP: MEC (HepG2 cells; human, 24 h): 89.4 µM
ER stress panel 1: ER integrity: MEC (HepG2 cells; human, 24 h): 82.6 µM
Inflammation & pH: HIF1α: MEC (HepG2 cells; human, 24 h): 32.3 µM
Inflammation & pH: intracellular pH: MEC (HepG2 cells; human, 24 h): 26.3 µM
Mitochondrial mass: MEC (HepG2 cells; human, 24 h): 25.9 µM
Mitochondrial membrane potential: MEC (HepG2 cells; human, 24 h): 10.8 µM
Nuclear size: MEC (HepG2 cells; human, 24 h): 69.2 µM
Osmotic & heat shock: NFAT: MEC (HepG2 cells; human, 24 h): 25.0 µM
Osmotic & heat shock: hsp70: MEC (HepG2 cells; human, 24 h): 3.3 µM
Oxidative stress: HMOX1: MEC (HepG2 cells; human, 24 h): 44 µM
Oxidative stress: NRF2: MEC (HepG2 cells; human, 24 h): 30.4 µM
Phospholipidosis: MEC (HepG2 cells; human, 24 h): 14.2 µM
Steatosis: MEC (HepG2 cells; human, 24 h): 77.4 µM
Anti-ERα antiestrogen LOEC, +S9 (ERα receptor [1]; +S9 (rat liver)): >−5 Log M
Anti-ERα antiestrogen LOEC, −S9 (ERα receptor [1]; −S9): >−5 Log M
BER, highest measured dietary plasma concentration [2]: 0.003
LOEC, ERα CALUX assay (ERα receptor [3]): 110 ± 18 nM
ERα receptor LOEC, +S9 (ERα receptor [3]; +S9 (rat liver)): −7.0 Log M
LOEC, ERα + S9 (ERα receptor [3]; CALUX ERα, with rat liver S9): 100 ± 0.0 nM and 100 ± 0 nM and 100 nM
LOEC, ERα − S9 (ERα receptor [3]; CALUX ERα, without S9): 110 nM
NOEC (in vitro PoD) = ERα CALUX LOEC divided by 3 (ERα receptor [3]; estimated from LOEC + S9): 33 nM
ERα receptor LOEC, −S9 (ERα receptor [3]; −S9): −6.9 Log M
Thyroid pathway: Monooxygenase (Not AOP), Call (Monooxygenase): Pos
AC50 (Monooxygenase; read-out: Thyroid pathway: Monooxygenase (Not AOP), AC50): 9.1 µM
Thyroid pathway: Regulation of transcription factor activity (TSHR), Call (TSHR): Neg
inhibition at 10 µM (Estrogen ERα (h) [4]): 100%
IC50 (MAO-A): 9.18 µM
inhibition at 10 µM (MAO-A; read-out: MAO-A (antagonist RL): % inhibition @10 µM): 49.6%
BMD/NOEC, gene pathway deregulation (HepaRG cells; HepaRG cells): 33.1 µM
Lowest median BMD, 3 genes passing all filters (HepaRG cells; [7]): 33.1 µM
Lowest median BMD, >5 genes passing all filters (HepaRG cells; [7]): 39.3 µM
BMD relating to estrogen effects (HepaRG cells; HepaRG, 24 h, pathway named in the cell): None
BERs derived using unbound plasma concentrations ([5]; 0.02% daidzein): 100–250
BER, Cmax, total CI5% ([5]; body lotion with 0.02% daidzein): 10/0.68 = 14.7
BER, Cmax, total CI5% ([5]; body lotion with 0.1% daidzein): 10/3.37 = 3.0
ERα LOEC (binding to receptor) (Estrogen ERα (h) [6]): 35 nM and 35.2 nM
